Measured values published in ChEMBL document CHEMBL2439979 (Bioorg Med Chem Lett, 2013).

Columns and labels:
[1] = target: Muscarinic acetylcholine receptor M3 (Homo sapiens, UniProt P20309); experiment: Displacement of [3H]NMS from human muscarinic M3 receptor expressed in CHO cells
[2] = target: T1, Muscarinic acetylcholine receptor M1 (Homo sapiens, UniProt P11229); experiment: Displacement of [3H]NMS from human muscarinic M1 receptor expressed in CHO cells
T1 sequence (P11229 whole entry): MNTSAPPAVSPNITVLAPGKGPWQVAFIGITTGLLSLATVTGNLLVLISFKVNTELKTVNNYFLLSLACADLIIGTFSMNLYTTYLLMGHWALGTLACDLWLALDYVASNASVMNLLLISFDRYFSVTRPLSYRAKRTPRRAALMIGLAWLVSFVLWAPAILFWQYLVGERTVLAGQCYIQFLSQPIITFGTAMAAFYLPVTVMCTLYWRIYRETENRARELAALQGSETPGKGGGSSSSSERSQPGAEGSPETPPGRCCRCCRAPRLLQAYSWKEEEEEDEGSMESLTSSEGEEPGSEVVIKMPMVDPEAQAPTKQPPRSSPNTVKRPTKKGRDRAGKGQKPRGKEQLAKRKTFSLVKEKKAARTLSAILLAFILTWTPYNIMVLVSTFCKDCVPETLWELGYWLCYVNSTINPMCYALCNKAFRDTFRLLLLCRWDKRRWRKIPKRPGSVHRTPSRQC

[3] = target: T2, Muscarinic acetylcholine receptor M5 (Homo sapiens, UniProt P08912); experiment: Displacement of [3H]NMS from human muscarinic M5 receptor expressed in CHO cells
T2 sequence (P08912 whole entry): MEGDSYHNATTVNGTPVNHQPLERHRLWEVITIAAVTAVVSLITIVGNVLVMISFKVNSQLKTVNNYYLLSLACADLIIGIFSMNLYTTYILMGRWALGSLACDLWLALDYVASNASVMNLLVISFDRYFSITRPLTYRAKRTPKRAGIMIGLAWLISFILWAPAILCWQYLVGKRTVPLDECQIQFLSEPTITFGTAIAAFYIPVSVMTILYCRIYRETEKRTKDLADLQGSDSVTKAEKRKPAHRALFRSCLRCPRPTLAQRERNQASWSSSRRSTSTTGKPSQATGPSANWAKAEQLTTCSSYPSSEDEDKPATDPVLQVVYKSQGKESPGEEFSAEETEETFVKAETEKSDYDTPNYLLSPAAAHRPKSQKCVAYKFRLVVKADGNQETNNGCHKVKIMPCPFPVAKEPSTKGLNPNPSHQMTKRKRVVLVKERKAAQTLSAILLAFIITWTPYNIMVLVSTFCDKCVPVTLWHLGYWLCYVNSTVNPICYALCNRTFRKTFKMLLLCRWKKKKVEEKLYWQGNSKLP

[4] = target: T3, Muscarinic acetylcholine receptor M2 (Homo sapiens, UniProt P08172); experiment: Displacement of [3H]NMS from human muscarinic M2 receptor expressed in CHO cells
T3 sequence (P08172 whole entry): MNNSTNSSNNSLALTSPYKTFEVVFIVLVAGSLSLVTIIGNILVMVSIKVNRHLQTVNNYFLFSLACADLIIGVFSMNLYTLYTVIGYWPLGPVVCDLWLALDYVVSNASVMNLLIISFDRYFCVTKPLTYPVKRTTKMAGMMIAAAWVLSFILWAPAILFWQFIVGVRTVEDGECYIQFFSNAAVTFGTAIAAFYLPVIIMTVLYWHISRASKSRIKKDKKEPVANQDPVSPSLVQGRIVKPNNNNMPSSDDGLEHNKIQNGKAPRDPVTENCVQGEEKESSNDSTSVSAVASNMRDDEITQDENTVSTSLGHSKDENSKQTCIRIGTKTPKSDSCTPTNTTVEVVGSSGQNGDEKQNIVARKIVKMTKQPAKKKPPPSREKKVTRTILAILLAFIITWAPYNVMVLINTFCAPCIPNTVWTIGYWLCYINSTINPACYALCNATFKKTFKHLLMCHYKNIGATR

[5] = target: T4, Muscarinic acetylcholine receptor M4 (Homo sapiens, UniProt P08173); experiment: Displacement of [3H]NMS from human muscarinic M4 receptor expressed in CHO cells
T4 sequence (P08173 whole entry): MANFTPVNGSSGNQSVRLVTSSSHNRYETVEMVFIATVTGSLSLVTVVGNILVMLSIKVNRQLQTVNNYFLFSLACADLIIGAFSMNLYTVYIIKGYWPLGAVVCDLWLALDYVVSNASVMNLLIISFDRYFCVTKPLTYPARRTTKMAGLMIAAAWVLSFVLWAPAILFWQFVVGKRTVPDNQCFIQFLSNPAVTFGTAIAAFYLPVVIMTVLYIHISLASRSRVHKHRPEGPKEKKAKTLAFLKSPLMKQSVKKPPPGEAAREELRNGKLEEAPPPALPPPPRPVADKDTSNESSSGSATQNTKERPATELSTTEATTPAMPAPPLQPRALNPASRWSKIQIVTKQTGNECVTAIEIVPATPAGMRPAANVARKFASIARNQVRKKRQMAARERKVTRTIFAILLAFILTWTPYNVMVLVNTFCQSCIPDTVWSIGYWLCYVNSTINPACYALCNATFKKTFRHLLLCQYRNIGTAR

[6] = target: Muscarinic acetylcholine receptor; experiment: Binding affinity to muscarinic M1/M5 receptor (unknown origin); format: protein assay, Homo sapiens
[7] = target: Neuronal acetylcholine receptor subunit alpha-7 (Rattus norvegicus, UniProt Q05941); experiment: Displacement of [125I]-alpha-bungarotoxin from alpha7 nAChR in rat hippocampus membranes; format: cell membranes, Membrane
[8] = target: Neuronal acetylcholine receptor; alpha4/beta2 (Rattus norvegicus, UniProt P09483+P12390); experiment: Displacement of [3H]-epibatidine from alpha4beta2 nAChR in rat cortex hippocampus; format: tissue-based
[9] = target: Neuronal acetylcholine receptor; alpha4/beta2 (Homo sapiens, UniProt P17787+P43681); experiment: Binding affinity to alpha4beta2 nAChR (unknown origin); format: protein-complex assay
[10] = target: Neuronal acetylcholine receptor subunit alpha-7 (Homo sapiens, UniProt P36544); experiment: Binding affinity to alpha7 nAChR (unknown origin)
Neuronal acetylcholine receptor subunit alpha-7 (Homo sapiens, UniProt P36544), sequence (P36544 whole entry): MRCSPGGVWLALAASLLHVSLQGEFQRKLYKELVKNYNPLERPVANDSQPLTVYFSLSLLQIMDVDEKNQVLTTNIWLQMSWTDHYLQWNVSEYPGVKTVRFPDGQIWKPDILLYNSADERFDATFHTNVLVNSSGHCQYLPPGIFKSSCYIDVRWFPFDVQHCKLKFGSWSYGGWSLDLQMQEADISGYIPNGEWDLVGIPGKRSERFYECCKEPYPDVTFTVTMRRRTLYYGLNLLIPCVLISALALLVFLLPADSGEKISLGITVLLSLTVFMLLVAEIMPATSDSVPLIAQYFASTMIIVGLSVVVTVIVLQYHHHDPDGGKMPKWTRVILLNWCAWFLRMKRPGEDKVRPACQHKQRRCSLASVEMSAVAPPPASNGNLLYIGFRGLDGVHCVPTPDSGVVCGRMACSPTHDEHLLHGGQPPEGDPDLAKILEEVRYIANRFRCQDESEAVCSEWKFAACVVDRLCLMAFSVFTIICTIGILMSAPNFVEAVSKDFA

Neuronal acetylcholine receptor; alpha4/beta2 (Homo sapiens, UniProt P17787+P43681), sequence (P17787 whole entry): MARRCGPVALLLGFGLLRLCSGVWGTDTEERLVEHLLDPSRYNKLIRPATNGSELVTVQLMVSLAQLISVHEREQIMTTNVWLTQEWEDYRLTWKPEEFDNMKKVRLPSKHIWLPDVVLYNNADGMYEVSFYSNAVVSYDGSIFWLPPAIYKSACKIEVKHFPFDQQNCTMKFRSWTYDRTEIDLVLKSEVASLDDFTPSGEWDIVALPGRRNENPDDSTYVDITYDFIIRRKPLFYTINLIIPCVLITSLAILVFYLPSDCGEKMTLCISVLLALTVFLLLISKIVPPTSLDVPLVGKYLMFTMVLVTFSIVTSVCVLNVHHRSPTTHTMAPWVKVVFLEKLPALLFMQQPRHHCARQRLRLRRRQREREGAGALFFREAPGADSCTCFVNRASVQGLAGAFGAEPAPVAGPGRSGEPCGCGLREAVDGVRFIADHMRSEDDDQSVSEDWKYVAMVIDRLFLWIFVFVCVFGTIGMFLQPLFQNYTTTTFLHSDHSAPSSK
Neuronal acetylcholine receptor; alpha4/beta2 (Homo sapiens, UniProt P17787+P43681), sequence (P43681 whole entry): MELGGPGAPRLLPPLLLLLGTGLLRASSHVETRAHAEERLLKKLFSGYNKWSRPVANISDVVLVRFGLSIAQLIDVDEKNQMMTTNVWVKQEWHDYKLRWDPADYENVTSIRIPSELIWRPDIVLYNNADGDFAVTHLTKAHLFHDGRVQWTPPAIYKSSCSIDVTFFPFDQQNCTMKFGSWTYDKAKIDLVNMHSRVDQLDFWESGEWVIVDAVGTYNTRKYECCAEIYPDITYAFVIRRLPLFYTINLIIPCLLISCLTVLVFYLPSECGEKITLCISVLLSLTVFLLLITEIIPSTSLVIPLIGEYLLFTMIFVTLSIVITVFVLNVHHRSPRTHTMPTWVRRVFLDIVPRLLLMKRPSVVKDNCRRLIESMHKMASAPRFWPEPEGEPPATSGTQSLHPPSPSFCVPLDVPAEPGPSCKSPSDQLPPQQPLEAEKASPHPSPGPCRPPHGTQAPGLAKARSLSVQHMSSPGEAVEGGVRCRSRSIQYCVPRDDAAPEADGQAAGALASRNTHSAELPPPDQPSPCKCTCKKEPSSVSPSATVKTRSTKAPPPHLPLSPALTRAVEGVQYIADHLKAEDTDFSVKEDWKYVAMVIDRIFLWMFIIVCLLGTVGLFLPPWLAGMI
Neuronal acetylcholine receptor; alpha4/beta2 (Rattus norvegicus, UniProt P09483+P12390), sequence (P09483 whole entry): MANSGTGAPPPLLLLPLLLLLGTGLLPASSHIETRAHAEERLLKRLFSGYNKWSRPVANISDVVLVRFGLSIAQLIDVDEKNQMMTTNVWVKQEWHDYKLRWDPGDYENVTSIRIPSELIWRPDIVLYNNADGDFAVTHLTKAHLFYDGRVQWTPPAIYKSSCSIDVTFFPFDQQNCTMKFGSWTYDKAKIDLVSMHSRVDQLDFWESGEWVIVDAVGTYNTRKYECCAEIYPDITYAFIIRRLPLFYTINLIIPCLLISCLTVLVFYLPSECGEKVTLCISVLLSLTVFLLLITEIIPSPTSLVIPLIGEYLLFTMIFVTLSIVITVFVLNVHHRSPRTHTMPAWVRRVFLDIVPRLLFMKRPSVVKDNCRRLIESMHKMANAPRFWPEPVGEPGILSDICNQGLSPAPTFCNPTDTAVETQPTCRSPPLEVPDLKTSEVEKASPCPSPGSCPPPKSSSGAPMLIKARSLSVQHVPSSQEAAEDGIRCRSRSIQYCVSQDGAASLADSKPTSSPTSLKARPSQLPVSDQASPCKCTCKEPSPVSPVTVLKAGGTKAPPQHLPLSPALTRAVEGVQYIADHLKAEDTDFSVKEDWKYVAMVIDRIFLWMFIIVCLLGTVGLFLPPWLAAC
Neuronal acetylcholine receptor; alpha4/beta2 (Rattus norvegicus, UniProt P09483+P12390), sequence (P12390 whole entry): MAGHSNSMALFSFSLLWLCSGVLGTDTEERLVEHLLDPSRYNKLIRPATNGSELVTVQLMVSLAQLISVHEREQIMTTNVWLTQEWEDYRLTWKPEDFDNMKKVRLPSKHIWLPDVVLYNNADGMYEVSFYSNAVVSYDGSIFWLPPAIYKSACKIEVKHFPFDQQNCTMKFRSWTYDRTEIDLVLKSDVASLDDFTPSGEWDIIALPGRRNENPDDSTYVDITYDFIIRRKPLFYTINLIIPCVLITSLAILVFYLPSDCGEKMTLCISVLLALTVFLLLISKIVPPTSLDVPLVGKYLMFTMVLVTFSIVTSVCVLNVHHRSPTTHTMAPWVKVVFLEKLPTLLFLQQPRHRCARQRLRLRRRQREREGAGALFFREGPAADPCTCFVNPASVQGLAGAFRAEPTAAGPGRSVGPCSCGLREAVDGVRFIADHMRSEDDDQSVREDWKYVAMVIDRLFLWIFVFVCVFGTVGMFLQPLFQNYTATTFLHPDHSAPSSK
Neuronal acetylcholine receptor subunit alpha-7 (Rattus norvegicus, UniProt Q05941), sequence (Q05941 whole entry): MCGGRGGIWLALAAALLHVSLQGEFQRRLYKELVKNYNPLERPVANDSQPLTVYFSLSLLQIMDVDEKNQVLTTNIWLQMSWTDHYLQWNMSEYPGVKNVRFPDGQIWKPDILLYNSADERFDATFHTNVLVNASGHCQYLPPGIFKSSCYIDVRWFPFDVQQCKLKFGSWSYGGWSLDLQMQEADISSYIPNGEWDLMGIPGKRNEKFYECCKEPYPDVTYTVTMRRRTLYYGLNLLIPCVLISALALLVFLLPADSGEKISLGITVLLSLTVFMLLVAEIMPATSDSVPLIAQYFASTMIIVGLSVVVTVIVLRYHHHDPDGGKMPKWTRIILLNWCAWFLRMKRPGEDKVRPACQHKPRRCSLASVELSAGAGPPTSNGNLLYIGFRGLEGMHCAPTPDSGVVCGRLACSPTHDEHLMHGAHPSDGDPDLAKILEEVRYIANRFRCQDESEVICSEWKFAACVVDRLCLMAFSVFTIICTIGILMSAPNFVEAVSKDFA
Muscarinic acetylcholine receptor M3, sequence (P20309 whole entry): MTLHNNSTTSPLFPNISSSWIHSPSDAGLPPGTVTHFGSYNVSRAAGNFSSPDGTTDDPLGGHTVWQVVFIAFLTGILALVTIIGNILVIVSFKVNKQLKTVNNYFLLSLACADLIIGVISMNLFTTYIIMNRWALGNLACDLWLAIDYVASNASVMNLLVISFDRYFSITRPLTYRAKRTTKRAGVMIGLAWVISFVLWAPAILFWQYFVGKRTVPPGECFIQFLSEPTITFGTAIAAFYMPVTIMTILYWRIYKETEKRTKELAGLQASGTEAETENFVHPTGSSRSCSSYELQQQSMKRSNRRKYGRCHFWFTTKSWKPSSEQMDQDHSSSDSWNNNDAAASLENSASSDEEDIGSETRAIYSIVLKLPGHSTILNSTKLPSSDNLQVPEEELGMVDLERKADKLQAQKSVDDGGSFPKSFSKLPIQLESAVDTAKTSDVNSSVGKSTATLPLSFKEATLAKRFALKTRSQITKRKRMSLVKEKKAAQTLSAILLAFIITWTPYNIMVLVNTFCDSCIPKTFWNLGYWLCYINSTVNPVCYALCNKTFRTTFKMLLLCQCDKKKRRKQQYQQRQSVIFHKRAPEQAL

Question: With CN1CCC[C@H]1[C@@H]1CNC(=O)O1 as the compound, how does the Ki [1] read?
Answer: > 100 µM

Question: And the Ki [2]?
Answer: > 100 µM

Question: And the Ki [3]?
Answer: > 100 µM

Question: What about the Ki [4] of the same compound?
Answer: > 100 µM

Question: And the Ki [5]?
Answer: > 100 µM

Question: How did the Ki [6] turn out when CC(C[N+](C)(C)C)OC(N)=O (stereo not drawn) [BETHANECHOL] was run?
Answer: 0.097 µM

Question: With C[N+]1(C)CCC[C@H]1COC(N)=O as the compound, how does the Ki [7] read?
Answer: 1.8 µM

Question: What about the Ki [1] of the same compound?
Answer: > 100 µM

Question: What about the Ki [2] of the same compound?
Answer: > 100 µM

Question: What about the Ki [8] of the same compound?
Answer: 1.06 µM

Question: And the Ki [3]?
Answer: > 100 µM

Question: What about the Ki [4] of the same compound?
Answer: > 100 µM

Question: And the Ki [5]?
Answer: > 100 µM

Question: Which results are given for CN1CCC[C@H]1[C@H]1COC(=O)N1?
Answer: Ki [7]: 50 µM; Ki [1]: > 100 µM; Ki [2]: > 100 µM; Ki [8]: 14 µM; Ki [3]: > 100 µM; Ki [4]: > 100 µM; Ki [5]: > 100 µM

Question: CN(C)C[C@H]1CN(C)C(=O)O1 was tested. Which Ki [7] did it give?
Answer: 158 µM

Question: What about the Ki [1] of the same compound?
Answer: > 100 µM

Question: What about the Ki [2] of the same compound?
Answer: > 100 µM

Question: What about the Ki [8] of the same compound?
Answer: 2.2 µM

Question: What about the Ki [3] of the same compound?
Answer: > 100 µM

Question: And the Ki [4]?
Answer: > 100 µM

Question: And the Ki [5]?
Answer: > 100 µM

Question: With CN(C)C[C@@H]1CNC(=O)O1 as the compound, how does the Ki [7] read?
Answer: 94 µM

Question: What about the Ki [1] of the same compound?
Answer: > 100 µM

Question: What about the Ki [2] of the same compound?
Answer: > 100 µM

Question: And the Ki [8]?
Answer: 0.452 µM

Question: And the Ki [3]?
Answer: > 100 µM

Question: What about the Ki [4] of the same compound?
Answer: > 100 µM

Question: And the Ki [5]?
Answer: > 100 µM

Question: How did the Ki [7] turn out when CN1C[C@@H](C[N+](C)(C)C)OC1=O was run?
Answer: 30 µM

Question: And the Ki [1]?
Answer: > 100 µM

Question: What about the Ki [2] of the same compound?
Answer: > 100 µM

Question: And the Ki [8]?
Answer: 3.61 µM

Question: What about the Ki [3] of the same compound?
Answer: > 100 µM

Question: What about the Ki [4] of the same compound?
Answer: > 100 µM

Question: What about the Ki [5] of the same compound?
Answer: > 100 µM

Question: CN(C)CCOC(=O)N(C)C [2-(DIMETHYLAMINO)ETHYL DIMETHYLCARBAMATE] was tested. Which Ki [9] did it give?
Answer: 5.7 µM

Question: And the Ki [6]?
Answer: 18 µM

Question: With C[N+](C)(C)CCOC(N)=O [CARBAMOYLCHOLINE] as the compound, how does the Ki [10] read?
Answer: 66 µM

Question: Which Ki [7] does the source give for C[N+](C)(C)C[C@H]1CNC(=O)O1 here?
Answer: 47 µM

Question: And the Ki [1]?
Answer: > 100 µM

Question: What about the Ki [2] of the same compound?
Answer: > 100 µM

Question: And the Ki [8]?
Answer: 0.396 µM

Question: What about the Ki [3] of the same compound?
Answer: > 100 µM

Question: What about the Ki [4] of the same compound?
Answer: > 100 µM

Question: And the Ki [5]?
Answer: > 100 µM

Question: What does the source list for CNC(=O)OCC[N+](C)(C)C?
Answer: Ki [9]: 0.023 µM; Ki [6]: 0.15 µM; Ki [10]: 44 µM

Question: With CN1C[C@H](C[N+](C)(C)C)OC1=O as the compound, how does the Ki [7] read?
Answer: 18.6 µM

Question: And the Ki [1]?
Answer: > 100 µM

Question: What about the Ki [2] of the same compound?
Answer: > 100 µM

Question: And the Ki [8]?
Answer: 3.1 µM

Question: And the Ki [3]?
Answer: > 100 µM

Question: And the Ki [4]?
Answer: > 100 µM

Question: What about the Ki [5] of the same compound?
Answer: > 100 µM

Question: CN(C)C[C@H]1CNC(=O)O1 was tested. Which Ki [7] did it give?
Answer: 41 µM

Question: What about the Ki [1] of the same compound?
Answer: > 100 µM

Question: What about the Ki [2] of the same compound?
Answer: > 100 µM

Question: What about the Ki [8] of the same compound?
Answer: 0.45 µM

Question: And the Ki [3]?
Answer: > 100 µM

Question: What about the Ki [4] of the same compound?
Answer: > 100 µM

Question: And the Ki [5]?
Answer: > 100 µM

Question: With CN1CCC[C@H]1[C@H]1CNC(=O)O1 as the compound, how does the Ki [1] read?
Answer: > 100 µM

Question: And the Ki [2]?
Answer: > 100 µM

Question: What about the Ki [3] of the same compound?
Answer: > 100 µM

Question: And the Ki [4]?
Answer: > 100 µM

Question: What about the Ki [5] of the same compound?
Answer: > 100 µM

Question: CN1CCC[C@H]1COC(N)=O was tested. Which Ki [7] did it give?
Answer: 78 µM

Question: What about the Ki [1] of the same compound?
Answer: > 100 µM

Question: And the Ki [2]?
Answer: > 100 µM

Question: And the Ki [8]?
Answer: 0.693 µM

Question: What about the Ki [3] of the same compound?
Answer: > 100 µM

Question: What about the Ki [4] of the same compound?
Answer: > 100 µM

Question: What about the Ki [5] of the same compound?
Answer: > 100 µM

Question: Which Ki [7] does the source give for CN(C)C[C@@H]1CN(C)C(=O)O1 here?
Answer: 449 µM

Question: And the Ki [1]?
Answer: > 100 µM

Question: And the Ki [2]?
Answer: > 100 µM

Question: And the Ki [8]?
Answer: 2.66 µM

Question: What about the Ki [3] of the same compound?
Answer: > 100 µM

Question: What about the Ki [4] of the same compound?
Answer: > 100 µM

Question: And the Ki [5]?
Answer: > 100 µM

Question: For CN1CCC[C@H]1[C@@H]1COC(=O)N1, which Ki [7] is on record?
Answer: 64 µM

Question: And the Ki [1]?
Answer: > 100 µM

Question: What about the Ki [2] of the same compound?
Answer: > 100 µM

Question: What about the Ki [8] of the same compound?
Answer: 9 µM

Question: And the Ki [3]?
Answer: > 100 µM

Question: And the Ki [4]?
Answer: > 100 µM

Question: What about the Ki [5] of the same compound?
Answer: > 100 µM

Question: For CN(C)C(=O)OCC[N+](C)(C)C, which Ki [9] is on record?
Answer: 0.02 µM

Question: And the Ki [6]?
Answer: 1.2 µM

Question: What does the source list for C[N+](C)(C)C[C@@H]1CNC(=O)O1?
Answer: Ki [7]: 45 µM; Ki [1]: > 100 µM; Ki [2]: > 100 µM; Ki [8]: 0.429 µM; Ki [3]: > 100 µM; Ki [4]: > 100 µM; Ki [5]: > 100 µM
